Marks after values point to notes of the source that are not given here.
Experiments:
[1] = Phase 1 crossover study, urine pharmacokinetics (Example 8); type: in vivo, human; details: for percentage of the dose excreted in urine as metabolite: oral administration
Text: Urine pharmacokinetic parameters of bendamustine, M3 and M4 are presented in Table 27, Table 28 and Table 29, respectively. The percentage of the dose excreted in urine unchanged was low (2.6% and 2.1% for oral and intravenous bendamustine, respectively).

[2] = Phase 1 crossover study, plasma pharmacokinetics after oral and i.v. bendamustine (Example 8); details: for AUCinf after oral administration as % of AUCinf after intravenous administration: 90% CI M3: 76%, 98%, M4: 77%, 102%
Experimental: An open label, randomized two-way crossover study to assess the absolute bioavailability of oral bendamustine in patients with cancer was conducted to assess the absolute bioavailability of bendamustine administered as an oral formulation (example 2). Besides assessing the pharmacokinetics of bendamustine in plasma following oral and i.v. administration, a further objective was to evaluate the safety and tolerability of bendamustine following i.v. and especially oral administration of the formulation of example 2.
14 patients who were suffering from multiple myeloma, B-cell type chronic lymphocytic leukemia or advanced indolent non-Hodgkin's lymphoma were enrolled and were treated with bendamustine. […] After signing the informed consent form and following the screening period (days −21 to −2), eligible patients were assigned a patient number which was specific for each study site. Patients were randomized to receive one of the following on day 1 followed by the other on day 8: • a single oral dose of 110.2 mg (2×55.1 mg) bendamustine HCl • a single intravenous dose of 100 mg bendamustine HCl
Bendamustine was provided a) orally as capsules, a LFHC formulation (liquid-filled, hard-shell capsule) and b) intravenously as a solution after reconstituting a powder for the preparation of a solution for injection. The LFHC formulation (per capsule) was prepared from 55.1 mg bendamustine hydrochloride, 1.2 mg methylparaben, 0.12 mg […], 0.12 mg butylated hydroxytoluene, 10.9 mg ethanol and 532.56 mg CREMOPHOR RH40. The vial with powder for concentrate for solution was the marketed product in Germany (RIBOMUSTINE) which contains per vial 100 mg of bendamustine hydrochloride and mannitol as an excipient. This product was reconstituted with water for injection to a final concentration of 2.5 mg/ml of bendamustine HCl and was further diluted with 0.9% NaCl until about 500 ml before administration to the patient, in accordance with the instructions of the package insert.
Patients were admitted to the study site for 2 periods; days −1 to 2 (period 1) and days 7 to 9 (period 2). A total of 12 patients was to be randomized to receive treatment. Six patients were to receive treatment with a single oral dose of 110.2 mg (2×55.1 mg) bendamustine HCl (day 1) followed by a single intravenous dose of 100 mg bendamustine HCl (day 8) while 6 other patients were to receive treatment in the alternate order. Patients underwent a washout period of at least 7 days between treatments.
After oral and intravenous administration of bendamustine the concentration of bendamustine, as well as that of the active metabolites of bendamustine (M3 and M4), were determined in plasma and urine samples on day 1 and day 8. Patients returned to the study site for an end-of-study visit 7 to 14 days after completion of the second treatment period, or after early discharge/withdrawal. Subsequently the pharmacokinetic parameters of bendamustine and its metabolites were calculated.

[3] = Stability of an aqueous solution of bendamustine as a function of pH; details: pH values higher than about 5
[4] = Phase 1 crossover study, safety and tolerability (Example 8); type: in vivo, human
[5] = M3 in urine, Bendamustine HCl 100 mg intravenously, mean, n=11
[6] = M3 in urine, Bendamustine HCl 100 mg intravenously, median, n=11
[7] = M3 in urine, Bendamustine HCl 100 mg intravenously, min-max, n=11
[8] = M3 in urine, Bendamustine HCl 110.2 mg orally, mean, n=10
[9] = M3 in urine, Bendamustine HCl 110.2 mg orally, median, n=10
[10] = M3 in urine, Bendamustine HCl 110.2 mg orally, min-max, n=10
[11] = M3 in plasma, Bendamustine HCl 100 mg intravenously, mean, n=11
[12] = M3 in plasma, Bendamustine HCl 110.2 mg orally, mean, n=11
[13] = M4 in urine, Bendamustine HCl 100 mg intravenously, mean, n=11
[14] = M4 in urine, Bendamustine HCl 100 mg intravenously, median, n=11
[15] = M4 in urine, Bendamustine HCl 100 mg intravenously, min-max, n=11
[16] = M4 in urine, Bendamustine HCl 110.2 mg orally, mean, n=10
[17] = M4 in urine, Bendamustine HCl 110.2 mg orally, median, n=10
[18] = M4 in urine, Bendamustine HCl 110.2 mg orally, min-max, n=10
[19] = M4 in plasma, Bendamustine HCl 100 mg intravenously, mean, n=11
[20] = M4 in plasma, Bendamustine HCl 110.2 mg orally, mean, n=11
[21] = bendamustine in urine, Bendamustine HCl 100 mg intravenously, mean, n=11
[22] = bendamustine in urine, Bendamustine HCl 100 mg intravenously, median, n=11
[23] = bendamustine in urine, Bendamustine HCl 100 mg intravenously, min-max, n=11
[24] = bendamustine in urine, Bendamustine HCl 110.2 mg orally, mean, n=11
[25] = bendamustine in urine, Bendamustine HCl 110.2 mg orally, median, n=11
[26] = bendamustine in urine, Bendamustine HCl 110.2 mg orally, min-max, n=11

For Cn1c(C(O)CCC(=O)O)nc2cc(N(CCCl)CCCl)ccc21 (stereo not drawn) [Batch M3, γ-hydroxybendamustine], the “% Aeinf” value [1, 5] was 0.459%, the “% Aelast” value [1, 5] was 0.457% and the Aeinf [1, 5] was 0.435 mg. For the same compound, the Aelast [1, 5] was 0.433 mg, the CLR [1, 5] was 1.29 L/h and the “% Aeinf” value [1, 6] was 0.354%. The “% Aelast” value [1, 6] was 0.353%, the Aeinf [1, 6] was 0.336 mg and the Aelast [1, 6] was 0.334 mg. For the same compound, the CLR [1, 6] was 0.856 L/h, the “% Aeinf” value [1, 7] was 0.018-1.6% and the “% Aelast” value [1, 7] was 0.018-1.6%. It also gave an Aeinf [1, 7] of 0.017 to 1.6 mg, an Aelast [1, 7] of 0.017 to 1.5 mg and a CLR [1, 7] of 0.082 to 5.2 L/h. The “% Aeinf” value [1, 8] was 0.611%, the “% Aelast” value [1, 8] was 0.61% and the Aeinf [1, 8] was 0.636 mg. The Aelast [1, 8] was 0.635 mg, the CLR [1, 8] was 2.14 L/h and the “% Aeinf” value [1, 9] was 0.537%. The “% Aelast” value [1, 9] was 0.553%, the Aeinf [1, 9] was 0.558 mg and the Aelast [1, 9] was 0.576 mg. For the same compound, the CLR [1, 9] was 1.49 L/h, the “% Aeinf” value [1, 10] was 0.13-1.5% and the “% Aelast” value [1, 10] was 0.12-1.6%. For the same compound, the Aeinf [1, 10] was 0.13 to 1.6 mg, the Aelast [1, 10] was 0.13 to 1.7 mg and the CLR [1, 10] was 0.45 to 7.4 L/h. For the same compound, the “percentage of the dose excreted in urine as metabolite” value ([1]; patients) was 0.6%, the AUCinf [2, 11] was 372 ng·h/mL and the AUClast [2, 11] was 370 ng·h/mL. It also gave a Cmax [2, 11] of 344 ng/mL, a t1/2 [2, 11] of 43.6 min and a tmax [2, 11] of 49.4 min. The AUCinf [2, 12] was 369 ng·h/mL, the AUClast [2, 12] was 367 ng·h/mL and the Cmax [2, 12] was 243 ng/mL. The t1/2 [2, 12] was 38.6 min, the tmax [2, 12] was 76.2 min and the “Mean AUCinf of bendamustine relative to that of the metabolite (times higher)” value ([2]; patients, oral administration) was 10.6 times. The “exposure relative to that of bendamustine” value ([2]; patients, oral administration) was “approximately 9%” and the “AUCinf after oral administration as % of AUCinf after intravenous administration” value ([2]; patients) was 86%.

For O=C(O)CCCc1nc2cc(N(CCCl)CCCl)ccc2[nH]1 [Batch M4, N-desmethylbendamustine], the “% Aeinf” value [1, 13] was 0.081%, the “% Aelast” value [1, 13] was 0.086% and the Aeinf [1, 13] was 0.071 mg. The Aelast [1, 13] was 0.075 mg, the CLR [1, 13] was 1.74 L/h and the “% Aeinf” value [1, 14] was 0.045%. The “% Aelast” value [1, 14] was 0.043%, the Aeinf [1, 14] was 0.039 mg and the Aelast [1, 14] was 0.038 mg. The CLR [1, 14] was 1.66 L/h, the “% Aeinf” value [1, 15] was 0.0039-0.17% and the “% Aelast” value [1, 15] was 0.0028-0.21%. The Aeinf [1, 15] was 0.0034 to 0.15 mg, the Aelast [1, 15] was 0.0025 to 0.18 mg and the CLR [1, 15] was 0.18 to 5.3 L/h. The “% Aeinf” value [1, 16] was 0.109%, the “% Aelast” value [1, 16] was 0.113% and the Aeinf [1, 16] was 0.105 mg. For the same compound, the Aelast [1, 16] was 0.109 mg, the CLR [1, 16] was 2.83 L/h and the “% Aeinf” value [1, 17] was 0.104%. The “% Aelast” value [1, 17] was 0.104%, the Aeinf [1, 17] was 0.1 mg and the Aelast [1, 17] was 0.1 mg. For the same compound, the CLR [1, 17] was 2.24 L/h, the “% Aeinf” value [1, 18] was 0.034-0.22% and the “% Aelast” value [1, 18] was 0.019-0.21%. For the same compound, the Aeinf [1, 18] was 0.033 to 0.21 mg, the Aelast [1, 18] was 0.019 to 0.21 mg and the CLR [1, 18] was 0.78 to 7.1 L/h. The “percentage of the dose excreted in urine as metabolite” value ([1]; patients) was 0.1%, the AUCinf [2, 19] was 42.5 ng·h/mL and the AUClast [2, 19] was 40.8 ng·h/mL. The Cmax [2, 19] was 33.6 ng/mL, the t1/2 [2, 19] was 32.6 min and the tmax [2, 19] was 56.1 min. It also gave an AUCinf [2, 20] of 44.4 ng·h/mL, an AUClast [2, 20] of 42.8 ng·h/mL and a Cmax [2, 20] of 26.9 ng/mL. For the same compound, the t1/2 [2, 20] was 30.9 min, the tmax [2, 20] was 79.5 min and the “Mean AUCinf of bendamustine relative to that of the metabolite (times higher)” value ([2]; patients, oral administration) was 88 times. The “exposure relative to that of bendamustine” value ([2]; patients, oral administration) was roughly 1% and the “AUCinf after oral administration as % of AUCinf after intravenous administration” value ([2]; patients) was 88%.

In the case of Cn1c(CCCC(=O)O)nc2cc(N(CCCl)CCCl)ccc21 [bendamustine, 4-[5-[bis(2-chloroethyl)amino]-1-methylbenzimidazo-2-yl]butanoic acid], the “% Aeinf” value [1, 21] was 2.07%, the “% Aelast” value [1, 21] was 2.07% and the Aeinf [1, 21] was 1.874 mg. For the same compound, the Aelast [1, 21] was 1.88 mg, the “% Aeinf” value [1, 22] was 1.22% and the “% Aelast” value [1, 22] was 1.23%. The Aeinf [1, 22] was 1.11 mg, the Aelast [1, 22] was 1.12 mg and the “% Aeinf” value [1, 23] was 0.27-8.8%. For the same compound, the “% Aelast” value [1, 23] was 0.27-8.8%, the Aeinf [1, 23] was 0.24 to 8.0 mg and the Aelast [1, 23] was 0.24 to 8.0 mg. The CLR [1, 23] was 0.06 to 1.4 L/h, the “% Aeinf” value [1, 24] was 2.64% and the “% Aelast” value [1, 24] was 2.66%. It also gave an Aeinf [1, 24] of 2.64 mg, an Aelast [1, 24] of 2.66 mg and a CLR [1, 24] of 0.788 L/h. For the same compound, the “% Aeinf” value [1, 25] was 2.23%, the “% Aelast” value [1, 25] was 2.23% and the Aeinf [1, 25] was 2.23 mg. The Aelast [1, 25] was 2.23 mg, the “% Aeinf” value [1, 26] was 0.40-5.8% and the “% Aelast” value [1, 26] was 0.40-5.9%. For the same compound, the Aeinf [1, 26] was 0.40 to 5.8 mg, the Aelast [1, 26] was 0.40 to 5.9 mg and the CLR [1, 26] was 0.18 to 2.0 L/h. For the same compound, the “percentage of the dose excreted in urine unchanged” value ([1]; patients, intravenous) was 2.1%, the “stability of an aqueous solution” value [3] was “significant hydrolytic decomposition” and the “patients with at least 1 adverse event considered related to study drug” value ([4]; intravenous dose) was “no patients”. The “patients with treatment-emergent adverse events” value ([4]; intravenous treatment, 100 mg) was 25%, the safety and tolerability ([4]; intravenous, single dose 100 mg) was “safe and well tolerated” and the “deaths during the study” value ([4]; oral and intravenous) was “No deaths occurred”. For the same compound, the “patients with at least 1 adverse event considered related to study drug” value ([4]; oral dose) was 29%, the “patients with treatment-emergent adverse events” value ([4]; oral treatment, 110.2 mg) was 43% and the safety and tolerability ([4]; oral, single dose 110.2 mg) was “safe and well tolerated”. The F ([2]; Bendamustine HCl 110.2 mg orally vs 100 mg intravenously, arithmetic mean, n=11) was 69.0† %, the CL/F ([2]; bendamustine in plasma, Bendamustine HCl 110.2 mg orally, mean, n=12) was 31.7 L/h and the “Mean t1/2” value ([2]; patients, intravenous administration) was “approximately 30 minutes”. The “absolute bioavailability (oral versus intravenous ratio of AUCinf), geometric mean” value ([2]; patients, oral 110.2 mg LFHC (example 2) vs i.v. 100 mg, 90% CI: 55%, 78%) was 66%, the tmax ([2]; patients, oral administration) was “approximately 0.95 hours” and the “tmax, individual values” ([2]; patients, oral administration) was 15 min and 108 min. The “Mean t1/2” value ([2]; patients, oral intake) was “approximately 30 minutes” and the “Cmax after oral dosing as % of Cmax after intravenous dosing” value ([2]; patients, 90% CI: 32%, 54%) was 42%.
